The term IC50 denotes the concentration that gives 50% inhibition. A higher IC50 goes with weaker potency.

The record followed here is patent US20150133426A1, “SUBSTITUTED PYRROLOPYRIMIDINES” (BAYER PHARMA AKTIENGESELLSCHAFT, priority 2012, published 2015).

The test has as its target T1, human full-length MKNK1 (Homo sapiens, UniProt Q9BUB5, T385D).
T1 construct: purchased Carna Biosciences 02-145; host or cells: insect cells, baculovirus expression system
Description: MKNK1 kinase high ATP assay (TR-FRET). In kind it is biochemical. The settings on record: high ATP (2 mM), 15 min preincubation with enzyme, GST-MKNK1 (T344D). The method in brief: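 GST-tagged full-length human MKNK1 (aa 1-424, T344D), baculovirus-expressed, preincubated 15 min with compound, then reacted 30 min at 22 °C with 2 mM ATP and 0.06 µM biotinylated peptide (final).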
In general terms: TR-FRET usually uses a lanthanide donor and a delayed reading to cut background.

T1 sequence (Q9BUB5 1-424 isoform Q9BUB5-2 T344D): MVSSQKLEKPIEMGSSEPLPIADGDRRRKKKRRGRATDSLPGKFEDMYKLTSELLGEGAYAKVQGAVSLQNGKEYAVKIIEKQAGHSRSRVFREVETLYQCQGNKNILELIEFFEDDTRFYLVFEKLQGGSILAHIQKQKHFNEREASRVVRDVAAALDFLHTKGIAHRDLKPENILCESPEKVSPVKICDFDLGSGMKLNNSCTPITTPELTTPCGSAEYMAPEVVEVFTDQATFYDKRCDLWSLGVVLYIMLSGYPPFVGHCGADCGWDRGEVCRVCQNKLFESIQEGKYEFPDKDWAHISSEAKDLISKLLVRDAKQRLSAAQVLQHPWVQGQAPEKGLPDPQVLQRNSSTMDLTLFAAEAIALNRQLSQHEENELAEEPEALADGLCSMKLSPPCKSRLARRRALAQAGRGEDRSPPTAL

`COc1cc(F)c(F)cc1Nc1ncnc2[nH]c3c(c12)CC(C(=O)NCCCS(C)(=O)=O)CC3` (racemic) [Example 161, (RS)-4-[(4,5-Difluoro-2-methoxyphenyl)amino]-N-[3-(methylsulfonyl)propyl]-6,7,8,9-tetrahydro-5H-pyrimido[4,5-b]indole-6-carboxamide]: 35 nM corresponded to half-maximal inhibition (IC50).

With `COc1cc(Cl)c(C)cc1Nc1ncnc2[nH]c3c(c12)CC(C(=O)NCCCS(C)(=O)=O)CC3` (racemic) [Example 162, (RS)-4-[(4-Chloro-2-methoxy-5-methylphenyl)amino]-N-[3-(methylsulfonyl)propyl]-6,7,8,9-tetrahydro-5H-pyrimido[4,5-b]indole-6-carboxamide], the midpoint of inhibition, the IC50, lay at 120 nM.

Compound `COc1cc2[nH]ncc2cc1Nc1ncnc2[nH]c3c(c12)CC(C(=O)NCCCS(C)(=O)=O)CC3` (racemic) [Example 163, (RS)-4-[(6-Methoxy-1H-indazol-5-yl)amino]-N-[3-(methylsulfonyl)propyl]-6,7,8,9-tetrahydro-5H-pyrimido[4,5-b]indole-6-carboxamide] displayed an IC50 of 4 nM. This IC50 is about 30-fold lower than that of the compound before.

For `COc1cc2[nH]c(=O)[nH]c2cc1Nc1ncnc2[nH]c3c(c12)CC(C(=O)NCCCS(C)(=O)=O)CC3` (racemic) [Example 164, (RS)-4-[(6-Methoxy-2-oxo-2,3-dihydro-1H-benzimidazol-5-yl)amino]-N-[3-(methylsulfonyl)propyl]-6,7,8,9-tetrahydro-5H-pyrimido[4,5-b]indole-6-carboxamide], the IC50 stood at 225 nM. Against the preceding compound, the IC50 is about 56-fold higher.

Take `CCOc1cc(Cl)ccc1Nc1ncnc2[nH]c3c(c12)CC(C(=O)NCCCS(C)(=O)=O)CC3` (racemic) [Example 165, (RS)-4-[(4-Chloro-2-ethoxyphenyl)amino]-N-[3-(methylsulfonyl)propyl]-6,7,8,9-tetrahydro-5H-pyrimido[4,5-b]indole-6-carboxamide]: the half-maximal inhibitory concentration (IC50) is 86 nM.

In turn, `CS(=O)(=O)CCCNC(=O)C1CCc2[nH]c3ncnc(Nc4ccc(Cl)c(Cl)c4)c3c2C1` (racemic) [Example 166, (RS)-4-[(3,4-Dichlorophenyl)amino]-N-[3-(methylsulfonyl)propyl]-6,7,8,9-tetrahydro-5H-pyrimido[4,5-b]indole-6-carboxamide] showed an IC50 of 45 nM.

Turning to `CS(=O)(=O)CCCNC(=O)C1CCc2[nH]c3ncnc(Nc4ccccc4OC4CCOC4)c3c2C1` (racemic) [Example 167, (RS)—N-[3-(Methylsulfonyl)propyl]-4-{[2-(tetrahydrofuran-3-yloxy)phenyl]amino}-6,7,8,9-tetrahydro-5H-pyrimido[4,5-b]indole-6-carboxamide], the IC50 amounted to 70 nM.

With `CS(=O)(=O)CCCNC(=O)C1CCc2[nH]c3ncnc(N4CCc5ccccc54)c3c2C1` (racemic) [Example 168, (RS)-4-(2,3-Dihydro-1H-indol-1-yl)-N-[3-(methylsulfonyl)propyl]-6,7,8,9-tetrahydro-5H-pyrimido[4,5-b]indole-6-carboxamide], the 50% inhibitory concentration (IC50) was found to be 803 nM.

The compound `Cc1nc2c(Nc3ncnc4[nH]c5c(c34)CC(C(=O)NCCCS(C)(=O)=O)CC5)cccc2[nH]1` (racemic) [Example 169, (RS)-4-[(2-Methyl-1H-benzimidazol-4-yl)amino]-N-[3-(methylsulfonyl)propyl]-6,7,8,9-tetrahydro-5H-pyrimido[4,5-b]indole-6-carboxamide] returned an IC50 of 2700 nM. Compared with the last compound, the IC50 is about 3.4-fold higher.

Compound `CCOC(=O)C1CCc2[nH]c3ncnc(Nc4ccccc4OC4CCCC4)c3c2C1` (racemic) [Example 170, (RS)-Ethyl 4-{[2-(cyclopentyloxy)phenyl]amino}-6,7,8,9-tetrahydro-5H-pyrimido[4,5-b]indole-6-carboxylate] came in with an IC50 of 1900 nM.

`CCOC(=O)C1CCc2[nH]c3ncnc(Nc4cc(F)ccc4OC)c3c2C1` (racemic) [Example 171, (RS)-Ethyl 4-[(5-fluoro-2-methoxyphenyl)amino]-6,7,8,9-tetrahydro-5H-pyrimido[4,5-b]indole-6-carboxylate] returned an IC50 of 6090 nM.

For the compound `CCOC(=O)C1CCc2[nH]c3ncnc(Nc4ccccc4N4CCOCC4)c3c2C1` (racemic) [Example 172, (RS)-Ethyl 4-{[2-(morpholin-4-yl)phenyl]amino}-6,7,8,9-tetrahydro-5H-pyrimido[4,5-b]indole-6-carboxylate], the half-maximal inhibitory concentration (IC50) stood at 751 nM.

With `CCOC(=O)C1CCc2[nH]c3ncnc(N4CCc5ccccc54)c3c2C1` (racemic) [Example 173, (RS)-Ethyl 4-(2,3-dihydro-1H-indol-1-yl)-6,7,8,9-tetrahydro-5H-pyrimido[4,5-b]indole-6-carboxylate], inhibition was half-maximal at 3600 nM (IC50).

In turn, `CCOC(=O)C1CCc2[nH]c3ncnc(Nc4ccc(F)cc4OC(C)C)c3c2C1` (racemic) [Example 174, (RS)-Ethyl 4-{[4-fluoro-2-(propan-2-yloxy)phenyl]amino}-6,7,8,9-tetrahydro-5H-pyrimido[4,5-b]indole-6-carboxylate] registered a 50% inhibitory concentration (IC50) of 706 nM.

In turn, `CCOC(=O)C1CCc2[nH]c3ncnc(Nc4cc(Cl)ccc4OC)c3c2C1` (racemic) [Example 175, (RS)-Ethyl 4-[(5-chloro-2-methoxyphenyl)amino]-6,7,8,9-tetrahydro-5H-pyrimido[4,5-b]indole-6-carboxylate] showed a concentration for half-maximal inhibition (IC50) of 359 nM.

As for `CCOC(=O)C1CCc2[nH]c3ncnc(Nc4ccc(F)cc4OCCO)c3c2C1` (racemic) [Example 176, (RS)-Ethyl 4-{[4-fluoro-2-(2-hydroxyethoxy)phenyl]amino}-6,7,8,9-tetrahydro-5H-pyrimido[4,5-b]indole-6-carboxylate], the IC50 is 174 nM.

Regarding `CCOC(=O)C1CCc2[nH]c3ncnc(Nc4cc(Cl)ccc4OC(C)C)c3c2C1` (racemic) [Example 177, (RS)-Ethyl 4-{[5-chloro-2-(propan-2-yloxy)phenyl]amino}-6,7,8,9-tetrahydro-5H-pyrimido[4,5-b]indole-6-carboxylate], the midpoint of inhibition, the IC50, lay at 17000 nM.

With `CCOC(=O)C1CCc2[nH]c3ncnc(Nc4ccc(Cl)c(Cl)c4)c3c2C1` (racemic) [Example 178, (RS)-Ethyl 4-[(3,4-dichlorophenyl)amino]-6,7,8,9-tetrahydro-5H-pyrimido[4,5-b]indole-6-carboxylate], half-maximal inhibition (IC50) was put at 215 nM.

Turning to `CCOC(=O)C1CCc2[nH]c3ncnc(Nc4cc5cn[nH]c5cc4OC)c3c2C1` (racemic) [Example 179, (RS)-Ethyl 4-[(6-methoxy-1H-indazol-5-yl)amino]-6,7,8,9-tetrahydro-5H-pyrimido[4,5-b]indole-6-carboxylate], the IC50 is 13 nM.

`O=C(O)C1CCc2[nH]c3ncnc(Nc4ccccc4OC4CCCC4)c3c2C1` (racemic) [Example 180, (RS)-4-{[2-(Cyclopentyloxy)phenyl]amino}-6,7,8,9-tetrahydro-5H-pyrimido[4,5-b]indole-6-carboxylic acid] registered an IC50 of 2890 nM. This IC50 lies about 220-fold higher than the previous one.

`COc1ccc(F)cc1Nc1ncnc2[nH]c3c(c12)CC(C(=O)O)CC3` (racemic) [Example 181, (RS)-4-[(5-Fluoro-2-methoxyphenyl)amino]-6,7,8,9-tetrahydro-5H-pyrimido[4,5-b]indole-6-carboxylic acid]: the half-inhibitory concentration (IC50) was 1100 nM. Against the preceding compound, the IC50 is about 2.6-fold lower.

In turn, `O=C(O)C1CCc2[nH]c3ncnc(Nc4ccc(F)cc4OCCO)c3c2C1` (racemic) [Example 182, (RS)-4-{[4-Fluoro-2-(2-hydroxyethoxy)phenyl]amino}-6,7,8,9-tetrahydro-5H-pyrimido[4,5-b]indole-6-carboxylic acid] came in with an IC50 of 251 nM.
